From patent US20200239530A1, “COMPOUNDS AND METHODS OF MODULATING PROTEIN DEGRADATION” (Vividion Therapeutics, Inc., priority 2017, published 2020) come the findings set out here.

Assay in all cases: Cysteine liganding, probe competition
Common to all, as to type: binding

The target in test [1] is T1, IDH2 Isocitrate dehydrogenase (Homo sapiens, UniProt P48735).
T1 construct: Cells were resuspended in cold PBS on ice and sonicated with a probe sonicator to achieve lysis; endogenous in cells
T1 sequence (P48735 40-452): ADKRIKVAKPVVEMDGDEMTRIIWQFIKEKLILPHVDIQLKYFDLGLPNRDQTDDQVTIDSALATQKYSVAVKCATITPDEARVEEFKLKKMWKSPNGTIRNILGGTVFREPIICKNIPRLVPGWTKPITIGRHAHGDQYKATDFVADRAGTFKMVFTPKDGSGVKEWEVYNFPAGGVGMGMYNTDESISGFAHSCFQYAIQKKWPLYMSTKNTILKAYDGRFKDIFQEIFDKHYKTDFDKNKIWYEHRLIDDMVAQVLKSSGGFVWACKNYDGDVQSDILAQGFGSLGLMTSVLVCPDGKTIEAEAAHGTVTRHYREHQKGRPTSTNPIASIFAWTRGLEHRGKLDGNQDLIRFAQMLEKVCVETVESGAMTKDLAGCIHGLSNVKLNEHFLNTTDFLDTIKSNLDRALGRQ
A digest of the protocol:
(§1)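 Lysates from probe-sonicated cells in PBS (5 mg/ml proteome) were exposed to compound for 1 hr at 25° C, then labelled with desthiobiotin iodoacetamide probe (10 mM stock) for 1 hr at 25° C. Probe-tagged peptides were streptavidin-enriched after trypsin digestion.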

In test [2] the target is T2, RPS6KA1 Ribosomal protein S6 kinase alpha-1 (Homo sapiens, UniProt Q15418).
T2 construct: Cells were resuspended in cold PBS on ice and sonicated with a probe sonicator to achieve lysis; endogenous in cells
T2 sequence (Q15418 whole entry): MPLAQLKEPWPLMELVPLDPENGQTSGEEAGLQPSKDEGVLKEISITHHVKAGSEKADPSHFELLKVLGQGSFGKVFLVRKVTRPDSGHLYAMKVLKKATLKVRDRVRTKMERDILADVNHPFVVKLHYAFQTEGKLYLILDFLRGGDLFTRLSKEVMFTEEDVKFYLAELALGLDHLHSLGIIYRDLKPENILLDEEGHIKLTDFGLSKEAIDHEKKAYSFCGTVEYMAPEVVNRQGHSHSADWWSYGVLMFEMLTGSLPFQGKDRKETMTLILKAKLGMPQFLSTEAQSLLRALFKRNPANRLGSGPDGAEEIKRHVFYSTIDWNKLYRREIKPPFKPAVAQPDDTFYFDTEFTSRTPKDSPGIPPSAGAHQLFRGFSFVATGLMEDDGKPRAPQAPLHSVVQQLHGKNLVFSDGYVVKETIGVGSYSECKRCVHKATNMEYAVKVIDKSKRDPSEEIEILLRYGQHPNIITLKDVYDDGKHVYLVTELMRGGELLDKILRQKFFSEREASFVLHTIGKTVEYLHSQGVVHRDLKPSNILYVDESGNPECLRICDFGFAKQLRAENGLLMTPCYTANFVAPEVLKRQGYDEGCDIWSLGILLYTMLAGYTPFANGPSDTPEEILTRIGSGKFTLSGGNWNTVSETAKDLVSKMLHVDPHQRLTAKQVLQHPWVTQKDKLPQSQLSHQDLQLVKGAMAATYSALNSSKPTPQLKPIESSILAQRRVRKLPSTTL
The method in brief: as §1

The next test deals with T3, SQSTM1 Sequestosome-1 (Homo sapiens, UniProt Q13501).
T3 construct: Cells were resuspended in cold PBS on ice and sonicated with a probe sonicator to achieve lysis; endogenous in cells
T3 sequence (Q13501 whole entry): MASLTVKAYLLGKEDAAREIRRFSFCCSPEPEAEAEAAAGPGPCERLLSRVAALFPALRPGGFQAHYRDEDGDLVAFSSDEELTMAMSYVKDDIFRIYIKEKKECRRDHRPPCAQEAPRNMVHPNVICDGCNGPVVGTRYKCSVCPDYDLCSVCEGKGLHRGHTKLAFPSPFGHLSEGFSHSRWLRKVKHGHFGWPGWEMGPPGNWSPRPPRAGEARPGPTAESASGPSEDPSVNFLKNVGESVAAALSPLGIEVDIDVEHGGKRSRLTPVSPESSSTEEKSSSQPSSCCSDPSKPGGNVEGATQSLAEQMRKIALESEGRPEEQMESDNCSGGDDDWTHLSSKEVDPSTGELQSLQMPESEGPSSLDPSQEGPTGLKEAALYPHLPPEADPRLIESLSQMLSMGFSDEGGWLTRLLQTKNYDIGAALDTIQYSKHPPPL
A digest of the protocol: as §1

Test [3] concerns the target T4, E3 ubiquitin-protein ligase pellino homolog 1 (PELI1) (Homo sapiens, UniProt Q96FA3).
T4 construct: Cells were resuspended in cold PBS on ice and sonicated with a probe sonicator to achieve lysis; endogenous in cells
The method in brief: as §1

T4 sequence (Q96FA3 whole entry): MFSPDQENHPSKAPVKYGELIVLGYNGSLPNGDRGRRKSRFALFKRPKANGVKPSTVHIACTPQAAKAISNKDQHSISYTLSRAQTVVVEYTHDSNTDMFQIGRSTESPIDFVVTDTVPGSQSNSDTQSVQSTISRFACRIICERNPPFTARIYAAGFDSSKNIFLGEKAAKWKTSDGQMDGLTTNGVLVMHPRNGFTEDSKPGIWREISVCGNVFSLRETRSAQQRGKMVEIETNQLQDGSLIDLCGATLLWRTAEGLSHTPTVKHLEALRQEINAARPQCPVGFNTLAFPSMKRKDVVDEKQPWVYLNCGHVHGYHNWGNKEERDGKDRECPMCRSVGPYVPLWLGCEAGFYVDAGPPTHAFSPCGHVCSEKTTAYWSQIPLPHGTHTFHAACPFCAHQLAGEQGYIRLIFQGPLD

Turning to `COc1ccc2c(c1)CCCN2C(=O)CCl` [KB02], the Liganded entry in test [1] (IDH2 Res# 154, uniprot P48735) is given as “YES”; in test [2] (RPS6KA1 Res# 223, uniprot Q15418), “YES”; at SQSTM1 Sequestosome-1 (SQSTM1 Res# 131, uniprot Q13501), “YES”.
With `C=CC(=O)N(c1ccccc1)c1ccc(Br)cc1` [KB05], the inhibition at 100 µM in test [3] (read-out: KB05_100 uM_percent_inhibition) came out at 2%.
For the compound `O=C(CCl)Nc1cc(C(F)(F)F)cc(C(F)(F)F)c1` [KBO3], the “100 Max” value in test [1] (uniprot P48735) is 63.35; in test [2] (uniprot Q15418) it was 1.03; on SQSTM1 Sequestosome-1 (uniprot Q13501) it was 11.89. The values for the 100 ave (in test [1] (uniprot P48735); in test [2] (uniprot Q15418); on SQSTM1 Sequestosome-1 (uniprot Q13501)) were 43.06, 1.03 and −14.15, respectively. The “500 Max” value in test [1] (uniprot P48735) is on record as 73.43; in test [2] (uniprot Q15418, in % (unit assumed)) it was 30.61; at SQSTM1 Sequestosome-1 (uniprot Q13501) it was 56.86. Further, the results for the 500 ave (in test [1] (uniprot P48735); in test [2] (uniprot Q15418); at SQSTM1 Sequestosome-1 (uniprot Q13501)) were 70.11, 30.61 and 54.29, respectively. The “KB03_100 uM_percent_inhibition” value in test [3] (100 uM) is recorded as 57%.
